Results: patent US8389523B2, “Substituted quinoxaline and an agrochemical composition thereof” (Kumiai Chemical Industry Co., Ltd., priority 2007, dated 2013)

Experiments:
Format in all cases: in vivo
Set-up in all cases: scale not given here
[1] = tested on: Scirpus juncoides Roxb. var. ohwianus. T. Koyama; assay: Herbicidal effects in paddy field soil treatment (Test Example 1); conditions: for Herbicidal effects index, Scirpus juncoides Roxb. var. ohwianus. T. Koyama: paddy field soil treatment, 1000 g of the active ingredient per hectare, wettable powder added dropwise on water surface, 21st day after treatment
How it was run: (§1)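 Application rate was 1000 g active ingredient per hectare, delivered as a diluted wettable powder onto the surface of 3 cm flood water, the day after seeds were sown in paddy soil. Effects were rated 21 days later.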

[2] = tested on: Echinochloa oryzicola Vasing; assay: as above; conditions: for Herbicidal effects index, Echinochloa oryzicola Vasing: paddy field soil treatment, 1000 g of the active ingredient per hectare, wettable powder added dropwise on water surface, 21st day after treatment
How it was run: as §1

[3] = tested on: Monochoria vaginalis (Burm. f.) Presl var. plantaginea (Roxb.) Solms-Laub.; assay: as above; conditions: for Herbicidal effects index, Monochoria vaginalis (Burm. f.) Presl var. plantaginea (Roxb.) Solms-Laub.: paddy field soil treatment, 1000 g of the active ingredient per hectare, wettable powder added dropwise on water surface, 21st day after treatment
How it was run: as §1

[4] = tested on: Abutilon theophrasti medicus; assay: Herbicidal effects in upland field soil treatment (Test Example 2); conditions: 1000 g active ingredient per hectare, 21st day after treatment, criteria of Table 138
How it was run: (§2)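 A wettable powder formulation, diluted with water, is applied to the soil surface after sowing and covering seeds in upland field soil, at a rate of 1000 g active ingredient per hectare. After greenhouse growth, herbicidal activity is graded by criteria at 21 days.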

[5] = tested on: Amaranthus viridis L.; assay: as above; conditions: 1000 g active ingredient per hectare, 21st day after treatment, criteria of Table 138
How it was run: as §2

[6] = tested on: Echinochloa crus-galli (L.) P. Beauv. var. crus-galli; assay: Herbicidal effects in upland field foliar treatment (Test Example 3); conditions: criteria of Table 138; for herbicidal effects on Echinochloa crus-galli (L.) P. Beauv. var. crus-galli: 1000 g of the active ingredient per hectare, 14th day after the treatment, wettable powder; for herbicidal effect (index) on Echinochloa crus-galli (L.) P. Beauv. var. crus-galli: 1000 g active ingredient per hectare, 14th day after treatment
How it was run: (§3)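 Dose was 1000 g of active ingredient per hectare, sprayed as a wettable powder in water at a volume of 1000 L/ha onto foliage of two-week-old greenhouse-grown plants in upland soil. Damage was assessed against rating criteria on the 14th day.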

[7] = tested on: Abutilon theophrasti medicus; assay: as above; conditions: criteria of Table 138; for herbicidal effects on Abutilon theophrasti medicus: 1000 g of the active ingredient per hectare, 14th day after the treatment, wettable powder; for herbicidal effect (index) on Abutilon theophrasti medicus: 1000 g active ingredient per hectare, 14th day after treatment
How it was run: as §3

[8] = tested on: Amaranthus viridis L.; assay: as above; conditions: criteria of Table 138; for herbicidal effects on Amaranthus viridis L.: 1000 g of the active ingredient per hectare, 14th day after the treatment, wettable powder; for herbicidal effect (index) on Amaranthus viridis L.: 1000 g active ingredient per hectare, 14th day after treatment
How it was run: as §3

[9] = paddy field soil treatment (Test Example 1), criteria of Table 138

| Compound | herbicidal effect (index) on Scirpus juncoides Roxb. var. ohwianus. T. Koyama [1, 9] | herbicidal effect (index) on Echinochloa oryzicola Vasing [2, 9] | herbicidal effect (index) on Monochoria vaginalis (Burm. f.) Presl var. plantaginea (Roxb.) Solms-Laub. [3, 9] | herbicidal effect (index) on Abutilon theophrasti medicus [4] | herbicidal effect (index) on Amaranthus viridis L. [5] | herbicidal effects on Echinochloa crus-galli (L.) P. Beauv. var. crus-galli [6] | herbicidal effects on Abutilon theophrasti medicus [7] | herbicidal effects on Amaranthus viridis L. [8] | Herbicidal effects index, Scirpus juncoides Roxb. var. ohwianus. T. Koyama [1] | Herbicidal effects index, Echinochloa oryzicola Vasing [2] | Herbicidal effects index, Monochoria vaginalis (Burm. f.) Presl var. plantaginea (Roxb.) Solms-Laub. [3] | herbicidal effect (index) on Echinochloa crus-galli (L.) P. Beauv. var. crus-galli [6] | herbicidal effect (index) on Abutilon theophrasti medicus [7] | herbicidal effect (index) on Amaranthus viridis L. [8] |
| --- | --- | --- | --- | --- | --- | --- | --- | --- | --- | --- | --- | --- | --- | --- |
| O=C1CCCC(O)=C1C(=O)c1nc2cccnc2n(-c2ccccc2OC(F)(F)F)c1=O [IV-100] | 5 | 5 | 5 | 5 | 5 | 5 | 5 | 5 | – | – | – | – | – | – |
| Cc1ccc(-n2c(=O)c(C(=O)C3=C(O)CCCC3=O)nc3ccccc32)cc1C [II-211] | – | – | – | 5 | 5 | 5 | 5 | 5 | 5 | 5 | 5 | – | – | – |
| O=C1CCCC(O)=C1C(=O)c1nc2ccccc2n(-c2ccc(C(F)(F)F)cn2)c1=O [I-179] | – | – | – | 5 | 5 | – | – | – | 5 | 5 | 5 | 5 | 5 | 5 |
| O=C1CCCC(O)=C1C(=O)c1nc2cccnc2n(-c2cccc(Cl)c2)c1=O [IV-11] | – | – | – | 5 | 5 | 5 | 5 | 5 | 5 | 5 | 5 | – | – | – |
| O=C1CCCC(O)=C1C(=O)c1nc2cccnc2n(-c2cccc(C(F)(F)F)c2)c1=O [IV-39] | – | – | – | 5 | 5 | 5 | 5 | 5 | 5 | 5 | 5 | – | – | – |
| O=C1CCCC(O)=C1C(=O)c1nc2ccccc2n(Cc2ccccc2)c1=O [Compound I-107] | – | – | – | 5 | 5 | – | – | – | 5 | 4 | 5 | 4 | 5 | 5 |
| COc1ccc(-n2c(=O)c(C(=O)C3=C(O)CCCC3=O)nc3ccc(Cl)cc32)cc1 [II-196] | – | – | – | 4 | 5 | 5 | 5 | 5 | 5 | 4 | 5 | – | – | – |
| Cc1cccc(-n2c(=O)c(C(=O)C3=C(O)CCCC3=O)nc3cccnc32)c1 [IV-20] | – | – | – | 5 | 5 | 5 | 5 | 5 | 5 | 5 | 5 | – | – | – |
| CC1(C)CCC(=O)C(C(=O)c2nc3ccccc3n(-c3ccc4c(c3)OCCO4)c2=O)=C1O [II-227] | – | – | – | 5 | 5 | 5 | 4 | 5 | 5 | 5 | 5 | – | – | – |
| O=C1CCCC(O)=C1C(=O)c1nc2ccccc2n(-c2ccccn2)c1=O [I-171] | – | – | – | 5 | 5 | – | – | – | 5 | 5 | 5 | 5 | 5 | 5 |
| CCCn1c(=O)c(C(=O)C2=C(O)CCCC2=O)nc2cccnc21 [III-12] | – | – | – | 4 | 5 | 4 | 5 | 5 | 5 | 5 | 5 | – | – | – |
| O=C(C1=C(O)C2CCC(C2)C1=O)c1nc2cccnc2n(-c2ccccc2)c1=O (stereo not drawn) [IV-4] | – | – | – | 5 | 5 | 5 | 5 | 5 | 5 | 5 | 5 | – | – | – |
| COc1ccccc1Cn1c(=O)c(C(=O)C2=C(O)CCCC2=O)nc2cccnc21 [III-120] | – | – | – | 4 | 5 | 5 | 5 | 5 | 5 | 5 | 5 | – | – | – |
| O=C(C1=C(O)C2CCC(C2)C1=O)c1nc2ccccc2n(-c2ccccc2)c1=O (stereo not drawn) [II-4] | – | – | – | 4 | 5 | – | – | – | 5 | 5 | 5 | 4 | 5 | 5 |
| COc1c(F)cc(-n2c(=O)c(C(=O)C3=C(O)CCCC3=O)nc3ccccc32)cc1F [II-220] | – | – | – | 5 | 5 | 5 | 5 | 5 | 5 | 5 | 5 | – | – | – |
| O=C1CCCC(O)=C1C(=O)c1nc2ccccc2n(-c2cccc(C(F)(F)F)c2)c1=O [II-39] | – | – | – | 5 | 5 | 5 | 5 | 5 | 5 | 5 | 5 | – | – | – |
| COc1ccccc1-n1c(=O)c(C(=O)C2=C(O)CCCC2=O)nc2ccccc21 [II-52] | – | – | – | 5 | 5 | 5 | 5 | 5 | 5 | 5 | 5 | – | – | – |
| Cn1c(=O)c(C(=O)C2=C(O)CCCC2=O)nc2cc(Cl)ccc21 [I-225] | – | – | – | 5 | 5 | – | – | – | 4 | 5 | 5 | 4 | 5 | 5 |
